Test results as given in patent US12692238B2, “Substituted pyridazinone herbicides” (FMC CORPORATION, priority 2020, dated 2026).

Legend:
Assay type in all cases: in vivo
[1] = system: ducksalad (Heteranthera limosa); test: Test B flooded paddy test, ducksalad; details: 250 g ai/ha, Flood; visually evaluated after 10 to 14 days
Procedure: (§1) Plant species in the flooded paddy test selected from barnyardgrass (Echinochloa crus-galli), ducksalad (Heteranthera limosa), rice (Oryza sativa), and sedge, umbrella (small-flower umbrella sedge, Cyperus difformis) were grown to the 2-leaf stage for testing. At time of treatment, test pots were flooded to 3 cm above the soil surface, treated by application of test compounds directly to the paddy water, and then maintained at that water depth for the duration of the test. Treated plants and controls were maintained in a greenhouse for 10 to 14 days, after which time all species were compared to controls and visually evaluated. Plant response ratings, summarized in Table B, are based on a scale of 0 to 100 where 0 is no effect and 100 is complete control. A dash (-) response means no test result.

[2] = system: ragweed (common ragweed, Ambrosia artemisiifolia); test: Test A preemergence, ragweed; details: 0 to 100 scale, 10 days
Source text: (§2) Seeds of plant species selected from barnyardgrass (Echinochloa crus-galli), blackgrass (Alopecurus myosuroides), corn (Zea mays), foxtail, giant (giant foxtail, Setaria faberi), foxtail, green (green foxtail, Setaria viridis), goosegrass (Eleusine indica), kochia (Bassia scoparia), oat, wild (wild oat, Avena fatua), palmer amaranth (pigweed, palmer, Amaranthus palmeri), redroot pigweed (Amaranthus retroflexus), ragweed (common ragweed, Ambrosia artemisiifolia), ryegrass, Italian (Italian ryegrass, Lolium multiflorum), and soybean (Glycine max) were planted into a blend of loam soil and sand and treated preemergence with a directed soil spray using test chemicals formulated in a non-phytotoxic solvent mixture which included a surfactant.
(§3) At the same time, plants selected from these crop and weed species and also wheat (Triticum aestivum), galium (catchweed bedstraw, Galium aparine) and horseweed (Erigeron canadensis) were planted in pots containing the same blend of loam soil and sand and treated with postemergence applications of test chemicals formulated in the same manner. Plants ranged in height from 2 to 10 cm and were in the one- to two-leaf stage for the postemergence treatment. Treated plants and untreated controls were maintained in a greenhouse for 10 days, after which time all treated plants were compared to untreated controls and visually evaluated for injury. Plant response ratings, summarized in Table A, are based on a 0 to 100 scale where 0 is no effect and 100 is complete control. A dash (-) response means no test result.

[3] = system: redroot pigweed (Amaranthus retroflexus); test: Test A postemergence, redroot pigweed; details: 10 days
Source text: as §2, §3

corn (Zea mays) = test: Test A postemergence, corn; details: Postemergence, 0 to 100 scale, 10 days
Source text: as §2, §3

[4] = system: galium (catchweed bedstraw, Galium aparine); test: Test A postemergence, galium; details: 10 days
Source text: as §2, §3

[5] = system: blackgrass (Alopecurus myosuroides); test: Test A postemergence, blackgrass; details: Postemergence, 0 to 100 scale, 10 days
Source text: as §2, §3

[6] = system: redroot pigweed (Amaranthus retroflexus); test: Test A preemergence, redroot pigweed; details: 0 to 100 scale, 10 days
Source text: as §2, §3

[7] = system: barnyardgrass (Echinochloa crus-galli); test: Test A preemergence, barnyardgrass; details: 10 days
Source text: as §2, §3

[8] = system: foxtail, giant (giant foxtail, Setaria faberi); test: Test A preemergence, foxtail, giant; details: 0 to 100 scale, 10 days
Source text: as §2, §3

[9] = system: ryegrass, Italian (Italian ryegrass, Lolium multiflorum); test: Test A postemergence, ryegrass, Italian; details: 10 days
Source text: as §2, §3

kochia (Bassia scoparia) [10] = test: Test A postemergence, kochia; details: 10 days
Source text: as §2, §3

[11] = system: foxtail, giant (giant foxtail, Setaria faberi); test: Test A postemergence, foxtail, giant; details: Postemergence, 0 to 100 scale, 10 days
Source text: as §2, §3

kochia (Bassia scoparia) [12] = test: Test A preemergence, kochia; details: 0 to 100 scale, 10 days
Source text: as §2, §3

[13] = system: wheat (Triticum aestivum); test: Test A postemergence, wheat; details: 10 days
Source text: as §2, §3

[14] = system: barnyardgrass (Echinochloa crus-galli); test: Test B flooded paddy test, barnyardgrass; details: 250 g ai/ha, Flood; visually evaluated after 10 to 14 days
Procedure: as §1

[15] = system: ragweed (common ragweed, Ambrosia artemisiifolia); test: Test A postemergence, ragweed; details: 10 days
Source text: as §2, §3

[16] = system: barnyardgrass (Echinochloa crus-galli); test: Test A postemergence, barnyardgrass; details: Postemergence, 0 to 100 scale, 10 days
Source text: as §2, §3

[17] = system: ryegrass, Italian (Italian ryegrass, Lolium multiflorum); test: Test A preemergence, ryegrass, Italian; details: 0 to 100 scale, 10 days
Source text: as §2, §3

[18] = system: sedge, umbrella (small-flower umbrella sedge, Cyperus difformis); test: Test B flooded paddy test, sedge, umbrella; details: 250 g ai/ha, Flood; visually evaluated after 10 to 14 days
Procedure: as §1

rice (Oryza sativa) = test: Test B flooded paddy test, rice; details: 250 g ai/ha, Flood; visually evaluated after 10 to 14 days
Procedure: as §1

[19] = 31 g ai/ha, postemergence, 0 to 100 scale (0 no effect, 100 complete control)
[20] = Postemergence, 125 g ai/ha, 0 to 100 scale
[21] = 125 g ai/ha, 0 to 100 scale (0 no effect, 100 complete control)

| Compound | Plant response rating, Ducksalad (0 to 100 scale where 0 is no effect and 100 is complete control) [1] | Plant response rating, Pigweed, Redroot [3, 19] | Plant response rating, Pigweed, Redroot [3, 20] | Plant response rating, Corn (corn (Zea mays); 31 g ai/ha) | Plant response rating, Corn (corn (Zea mays); 125 g ai/ha) | Plant response rating, Galium [4, 19] | Plant response rating, Galium [4, 20] | Plant response rating, Blackgrass ([5]; 31 g ai/ha) | Plant response rating, Blackgrass ([5]; 125 g ai/ha) | Plant response rating, Pigweed, Redroot ([6]; 31 g ai/ha) | Plant response rating, Pigweed, Redroot ([6]; 125 g ai/ha) | Plant response rating, Barnyardgrass ([7]; 31 g ai/ha, 0 to 100 scale) | Plant response rating, Barnyardgrass [7, 21] | Plant response rating, Foxtail, Giant ([8]; 31 g ai/ha) | Plant response rating, Foxtail, Giant ([8]; 125 g ai/ha) | Plant response rating, Ryegrass, Italian [9, 19] | Plant response rating, Ryegrass, Italian [9, 20] | Plant response rating, Kochia (kochia (Bassia scoparia) [10]; [19]) | Plant response rating, Kochia (kochia (Bassia scoparia) [10]; [20]) | Plant response rating, Foxtail, Giant ([11]; 31 g ai/ha) | other results |
| --- | --- | --- | --- | --- | --- | --- | --- | --- | --- | --- | --- | --- | --- | --- | --- | --- | --- | --- | --- | --- | --- |
| CC(=O)OCOc1c(C)nn(C)c(=O)c1-c1c2ccccc2c(Cl)c2ccccc12 [Compound 12] | 70 | 100 | 100 | 0 | 10 | 100 | 100 | 0 | 30 | 100 | 100 | 20 | 90 | 10 | 80 | 80 | 100 | 40 | 80 | 20 | Plant response rating, Ragweed ([2]; 31 g ai/ha): 60; Plant response rating, Ragweed ([2]; 125 g ai/ha): 80; Plant response rating, Foxtail, Giant ([11]; 125 g ai/ha): 80; Plant response rating, Kochia (kochia (Bassia scoparia) [12]; 31 g ai/ha): 0; Plant response rating, Kochia (kochia (Bassia scoparia) [12]; 125 g ai/ha): 100; Plant response rating, Wheat [13, 19]: 0; Plant response rating, Wheat [13, 20]: 10; Plant response rating, Barnyardgrass (0 to 100 scale where 0 is no effect and 100 is complete control) [14]: 0; Plant response rating, Ragweed [15, 19]: 90; Plant response rating, Ragweed [15, 20]: 100; Plant response rating, Barnyardgrass ([16]; 31 g ai/ha): 10; Plant response rating, Barnyardgrass ([16]; 125 g ai/ha): 60; Plant response rating, Ryegrass, Italian ([17]; 31 g ai/ha): 70; Plant response rating, Ryegrass, Italian ([17]; 125 g ai/ha): 90; Plant response rating, Sedge, Umbrella (0 to 100 scale where 0 is no effect and 100 is complete control) [18]: 85; Plant response rating, Rice (0 to 100 scale where 0 is no effect and 100 is complete control) (rice (Oryza sativa)): 0 |
| CC(=O)OCOc1c(C)nn(C)c(=O)c1-c1c2ccccc2cc2ccccc12 [Compound 13] | 0 | 100 | 100 | 0 | 0 | 100 | 100 | 0 | 40 | 100 | 100 | 0 | 30 | 0 | 20 | 70 | 100 | 10 | 50 | 10 | Plant response rating, Foxtail, Giant ([11]; 125 g ai/ha): 60; Plant response rating, Kochia (kochia (Bassia scoparia) [12]; 31 g ai/ha): 0; Plant response rating, Kochia (kochia (Bassia scoparia) [12]; 125 g ai/ha): 0; Plant response rating, Wheat [13, 19]: 0; Plant response rating, Wheat [13, 20]: 0; Plant response rating, Barnyardgrass (0 to 100 scale where 0 is no effect and 100 is complete control) [14]: 0; Plant response rating, Ragweed [15, 19]: 90; Plant response rating, Ragweed [15, 20]: 100; Plant response rating, Barnyardgrass ([16]; 31 g ai/ha): 10; Plant response rating, Barnyardgrass ([16]; 125 g ai/ha): 40; Plant response rating, Ryegrass, Italian ([17]; 31 g ai/ha): 30; Plant response rating, Ryegrass, Italian ([17]; 125 g ai/ha): 70; Plant response rating, Sedge, Umbrella (0 to 100 scale where 0 is no effect and 100 is complete control) [18]: 0; Plant response rating, Rice (0 to 100 scale where 0 is no effect and 100 is complete control) (rice (Oryza sativa)): 0 |
| CC(=O)OCOc1c(C)nn(C)c(=O)c1-c1c2ccccc2c(Br)c2ccccc12 [Compound 14] | 80 | 100 | 100 | 0 | 0 | 100 | 100 | 20 | 30 | 100 | 100 | 10 | 80 | 60 | 100 | 80 | 100 | 30 | 60 | 30 | Plant response rating, Ragweed ([2]; 31 g ai/ha): 90; Plant response rating, Ragweed ([2]; 125 g ai/ha): 100; Plant response rating, Foxtail, Giant ([11]; 125 g ai/ha): 90; Plant response rating, Kochia (kochia (Bassia scoparia) [12]; 31 g ai/ha): 20; Plant response rating, Kochia (kochia (Bassia scoparia) [12]; 125 g ai/ha): 30; Plant response rating, Wheat [13, 19]: 0; Plant response rating, Wheat [13, 20]: 40; Plant response rating, Barnyardgrass (0 to 100 scale where 0 is no effect and 100 is complete control) [14]: 20; Plant response rating, Ragweed [15, 19]: 90; Plant response rating, Ragweed [15, 20]: 100; Plant response rating, Barnyardgrass ([16]; 31 g ai/ha): 30; Plant response rating, Barnyardgrass ([16]; 125 g ai/ha): 80; Plant response rating, Ryegrass, Italian ([17]; 31 g ai/ha): 80; Plant response rating, Ryegrass, Italian ([17]; 125 g ai/ha): 100; Plant response rating, Sedge, Umbrella (0 to 100 scale where 0 is no effect and 100 is complete control) [18]: 90; Plant response rating, Rice (0 to 100 scale where 0 is no effect and 100 is complete control) (rice (Oryza sativa)): 0 |
